Earlier results on three molecules are cited in US4220642A, “Vasoactive lung polypeptides” (priority 1978, dated 1980).

Series [1] concerns rat stomach strip, rat colon. Particulars: rat stomach strip and colon.
Series [2] relates to guinea pig trachea, ileum, gallbladder, pulmonary artery, "lung". Particulars: trachea (F2 α).

As to `CCCCC[C@H](O)/C=C/[C@H]1[C@H](O)CC(=O)[C@@H]1CCCCCCC(=O)O` [Prostaglandin E1], the “contraction of chick rectum by prostaglandins” value (shortened to “contraction of chick rectum”) with chick rectum is recorded as “contract”. For the same molecule, in series [1], the “contraction of rat smooth-muscle organs by prostaglandins” value (“contraction of rat smooth-muscle organs” for short) was “contract”. Besides, the “contraction of guinea pig smooth-muscle organs by prostaglandins” value in series [2] is listed as “contract”.
Regarding `CCCCC[C@H](O)/C=C/[C@H]1[C@H](O)CC(=O)[C@@H]1C/C=C\CCCC(=O)O` [Prostaglandin E2], the “contraction of chick rectum” value in the series on chick rectum was “contract”. The “contraction of rat smooth-muscle organs” value in series [1] is “contract”. Moreover, the “contraction of guinea pig smooth-muscle organs by prostaglandins” value in series [2] is recorded as “contract”.
Turning to Prostaglandin F2 α, in the series on chick rectum, the “contraction of chick rectum” value was “contracting”. In addition, the “contraction of rat smooth-muscle organs” value in series [1] is “contracting”. Besides, the “contraction of guinea pig smooth-muscle organs by prostaglandins” value in series [2] is on record as “contracts”.
